# Results reported in patent US6723841B2, “Corticotropin-releasing factor2 receptors” (priority 1994, dated 2004).
# Ends that are not written are not given here.
# Tests used:
# Assay type in all cases: cell-based
# human CRF2α receptor = assay: cAMP assay (adenylate cyclase stimulation) in cells transfected with CRF2α receptor; details: cAMP production, read-out: effective concentration of one-half maximal adenylate cyclase stimulation (EC50), human CRF2α receptor
# Protocol: (§1) For agonist testing, compounds are added to wells with buffer only in order to identify compounds with intrinsic activity. […] Compounds are then assessed for their ability to inhibit the CRF-stimulated cAMP production in the transfected cells. Briefly, cells are plated and grown in DMEM containing 10% fetal bovine serum for 2-4 days in 24-well plates at 37° C. On the day of assay, the medium is removed by vacuum aspiration and 100 μl of DMEM, 10 mM MgCl2, 1 mM isobutylmethylxanthine (a phosphodiesterase inhibitor to inhibit the breakdown of cAMP produced) and 0.1% BSA (pH 7.2) are added to each well. CRF, related peptides and organic test molecules are added to individual wells. The plates are incubated at 37° C. for a period of 1 hour. Following incubation, the wells are aspirated, rinsed once with PBS and aspirated again. 300 μl of 95% Ethanol and 20 mM HCl (EtOH/HCl) are then added to each well and the plates incubated at −20° C. overnight to extract the produced cAMP. The EtOH/HCl is removed, placed in 1.5 ml polypropylene eppendorf tubes and the wells washed with an additional 200 μl of EtOH/HCl and pooled with the initial sample. All samples are dried in a Speed-Vac (Savant Instruments, Farmingdale N.Y.) and either stored at −20° C. until use or reconstituted with 500 μl of sodium acetate buffer pH 7.5 and assayed immediately for cAMP concentration using a radioimmunoassay kit from Biomedical Technologies Inc. (Stoughton Mass.) according to manufacturers instructions.
# The above results have been formulated below in Table I, wherein the effective concentration of one-half maximal adenylate cyclase stimulation (EC50) are presented.
# rat CRF2β receptor = molecular target: T1, rat CRF2β receptor (Rattus norvegicus, UniProt P47866); assay: cAMP assay (adenylate cyclase stimulation) in cells transfected with CRF2β receptor; details: cAMP production, read-out: effective concentration of one-half maximal adenylate cyclase stimulation (EC50), rat CRF2β receptor
# T1 construct: A full-length CRF2 receptor clone in pBluescriptSK- is isolated from the phage clone described above; expressed in transfected cells; host or cells: COS-7
# Protocol: (§2) For agonist testing, compounds are added to wells with buffer only in order to identify compounds with intrinsic activity. […] Briefly, cells are plated and grown in DMEM containing 10% fetal bovine serum for 2-4 days in 24-well plates at 37° C. On the day of assay, the medium is removed by vacuum aspiration and 100 μl of DMEM, 10 mM MgCl2, 1 mM isobutylmethylxanthine (a phosphodiesterase inhibitor to inhibit the breakdown of cAMP produced) and 0.1% BSA (pH 7.2) are added to each well. […] The plates are incubated at 37° C. for a period of 1 hour. Following incubation, the wells are aspirated, rinsed once with PBS and aspirated again. 300 μl of 95% Ethanol and 20 mM HCl (EtOH/HCl) are then added to each well and the plates incubated at −20° C. overnight to extract the produced cAMP. The EtOH/HCl is removed, placed in 1.5 ml polypropylene eppendorf tubes and the wells washed with an additional 200 μl of EtOH/HCl and pooled with the initial sample. All samples are dried in a Speed-Vac (Savant Instruments, Farmingdale N.Y.) and either stored at −20° C. until use or reconstituted with 500 μl of sodium acetate buffer pH 7.5 and assayed immediately for cAMP concentration using a radioimmunoassay kit from Biomedical Technologies Inc. (Stoughton Mass.) according to manufacturers instructions.
# rat CRF2α receptor = molecular target: T2, rat CRF2α receptor (Rattus norvegicus, UniProt P47866); assay: cAMP accumulation in cells transfected with rat CRF2α receptor (FIG. 4)
# T2 construct: A full-length CRF2 receptor clone in pBluescriptSK- is isolated from the phage clone described above; expressed in transfected cells; host or cells: COS-7
# Protocol: as §1, with “All samples are dried in a Speed-Vac (Savant Instruments, Farmingdale N.Y.) and either stored at −20° C. until use or reconstituted with 500 μl of sodium acetate buffer pH 7.5 and assayed immediately for cAMP concentration using a radioimmunoassay kit from Biomedical Technologies Inc. (Stoughton Mass.) according to manufacturers instructions.” left out
# In FIG. 4, the rat CRF2α receptor has been transfected into cells and cAMP accumulation is measured in response to the same drugs as shown in FIG. 3. […]
# human CRF1 receptor = molecular target: T3, human CRF1 receptor (Homo sapiens, UniProt P34998); assay: cAMP assay (adenylate cyclase stimulation) in cells transfected with CRF1 receptor; details: for EC50: transfected cells, cAMP production, read-out: effective concentration of one-half maximal adenylate cyclase stimulation (EC50), human CRF1 receptor; for cAMP accumulation in cells transfected with the CRF1 receptor: FIG. 3
# T3 construct: expressed in transfected cells
# T3 sequence (P34998 24-415): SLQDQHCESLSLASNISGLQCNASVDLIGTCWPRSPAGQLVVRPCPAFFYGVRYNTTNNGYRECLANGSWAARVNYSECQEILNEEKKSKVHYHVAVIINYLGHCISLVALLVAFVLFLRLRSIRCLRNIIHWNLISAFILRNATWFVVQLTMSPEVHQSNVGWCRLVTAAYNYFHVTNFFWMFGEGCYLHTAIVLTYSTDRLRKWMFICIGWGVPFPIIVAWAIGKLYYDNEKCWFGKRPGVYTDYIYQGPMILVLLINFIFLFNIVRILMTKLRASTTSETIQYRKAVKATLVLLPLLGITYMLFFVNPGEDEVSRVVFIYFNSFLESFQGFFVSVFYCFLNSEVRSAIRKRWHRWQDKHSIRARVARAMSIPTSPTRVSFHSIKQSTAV
# Protocol: as §2
# T2 sequence (P47866 whole entry): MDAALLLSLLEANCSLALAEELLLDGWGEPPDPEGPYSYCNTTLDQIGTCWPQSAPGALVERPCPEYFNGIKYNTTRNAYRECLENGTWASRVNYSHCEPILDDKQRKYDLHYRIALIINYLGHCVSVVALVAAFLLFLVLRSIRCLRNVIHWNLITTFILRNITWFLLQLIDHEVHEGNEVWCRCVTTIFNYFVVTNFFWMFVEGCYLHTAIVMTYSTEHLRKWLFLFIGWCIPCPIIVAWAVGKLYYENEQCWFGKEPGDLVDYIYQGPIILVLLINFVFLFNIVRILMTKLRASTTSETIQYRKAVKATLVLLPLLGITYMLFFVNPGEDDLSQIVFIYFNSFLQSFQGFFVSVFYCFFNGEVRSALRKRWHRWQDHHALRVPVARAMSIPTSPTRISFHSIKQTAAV
# T1 sequence (P47866 1-431 isoform P47866-2): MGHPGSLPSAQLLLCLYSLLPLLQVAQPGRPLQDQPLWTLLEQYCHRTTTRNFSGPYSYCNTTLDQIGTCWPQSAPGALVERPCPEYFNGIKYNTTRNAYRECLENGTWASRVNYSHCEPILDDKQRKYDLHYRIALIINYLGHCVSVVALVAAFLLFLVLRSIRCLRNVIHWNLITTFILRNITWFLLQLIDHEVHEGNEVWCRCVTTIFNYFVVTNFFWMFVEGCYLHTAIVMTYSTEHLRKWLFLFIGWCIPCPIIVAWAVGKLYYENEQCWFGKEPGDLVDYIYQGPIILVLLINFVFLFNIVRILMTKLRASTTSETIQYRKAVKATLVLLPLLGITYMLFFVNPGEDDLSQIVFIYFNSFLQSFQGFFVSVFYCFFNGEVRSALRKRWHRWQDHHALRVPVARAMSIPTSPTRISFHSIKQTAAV
Molecule,EC50 (human CRF2α receptor) [nM],EC50 (rat CRF2β receptor) [nM],"relative potency at stimulating cAMP, rat CRF2α receptor (rat CRF2α receptor)",EC50 (human CRF1 receptor) [nM],cAMP accumulation in cells transfected with the CRF1 receptor (human CRF1 receptor)
N=C(N)NCCC[C@H](NC(=O)[C@@H]1CCCN1C(=O)[C@@H]1CSSC[C@H](N)C(=O)N[C@@H](Cc2ccc(O)cc2)C(=O)N[C@@H](Cc2ccccc2)C(=O)N[C@@H](CCC(N)=O)C(=O)N[C@@H](CC(N)=O)C(=O)N1)C(=O)NCC(N)=O [AVP],> 1000,–,–,–,–
CC[C@H](C)[C@H](NC(=O)[C@@H](NC(=O)[C@H](CC(=O)O)NC(=O)[C@H](CC(C)C)NC(=O)[C@H](CC(C)C)NC(=O)[C@H](CC(C)C)NC(=O)[C@H](CCCNC(=N)N)NC(=O)[C@H](CC(N)=O)NC(=O)[C@H](CC(N)=O)NC(=O)[C@H](C)NC(=O)[C@H](C)NC(=O)[C@H](CCC(N)=O)NC(=O)[C@H](CCC(N)=O)NC(=O)[C@H](CCCCN)NC(=O)[C@H](CCC(=O)O)NC(=O)[C@H](CCCCN)NC(=O)[C@H](CCC(=O)O)NC(=O)[C@H](CCC(N)=O)NC(=O)[C@H](CCCCN)NC(=O)[C@H](CCC(=O)O)NC(=O)[C@@H](NC(=O)[C@H](CCC(=O)O)NC(=O)[C@@H](NC(=O)[C@H](CCSC)NC(=O)[C@H](CCCCN)NC(=O)[C@H](CCCNC(=N)N)NC(=O)[C@H](CC(C)C)NC(=O)[C@H](CC(C)C)NC(=O)[C@H](CCC(=O)O)NC(=O)[C@H](CC(C)C)NC(=O)[C@H](CO)NC(=O)[C@H](CC(C)C)NC(=O)[C@H](CC(=O)O)NC(=O)[C@@H](NC(=O)[C@H](CO)NC(=O)[C@@H](NC(=O)[C@@H]1CCCN1C(=O)[C@@H]1CCCN1C(=O)CNC(=O)[C@@H]1CCC(=O)N1)[C@@H](C)CC)[C@@H](C)CC)[C@@H](C)CC)[C@@H](C)CC)[C@@H](C)O)C(N)=O [Sauvagine],0.5,0.4,more potent than either oCRF or r/hCRF,–,–
CC[C@H](C)[C@H](NC(=O)[C@H](CO)NC(=O)[C@H](CC(N)=O)NC(=O)[C@H](CC(C)C)NC(=O)[C@H](Cc1ccc(O)cc1)NC(=O)[C@H](CCCCN)NC(=O)[C@H](CCCCN)NC(=O)[C@@H](NC(=O)[C@H](C)NC(=O)[C@H](CCSC)NC(=O)[C@H](CCC(N)=O)NC(=O)[C@H](CCCCN)NC(=O)[C@H](CCCNC(=N)N)NC(=O)[C@H](CC(C)C)NC(=O)[C@H](CCCNC(=N)N)NC(=O)[C@@H](NC(=O)[C@H](Cc1ccc(O)cc1)NC(=O)[C@H](CC(N)=O)NC(=O)[C@H](CC(=O)O)NC(=O)[C@@H](NC(=O)[C@H](Cc1ccccc1)NC(=O)[C@@H](NC(=O)[C@H](C)NC(=O)[C@H](CC(=O)O)NC(=O)[C@H](CO)NC(=O)[C@@H](N)Cc1c[nH]cn1)C(C)C)[C@@H](C)O)[C@@H](C)O)C(C)C)C(=O)N[C@@H](CC(C)C)C(=O)N[C@@H](CC(N)=O)C(N)=O [VIP],> 1000,–,–,–,–
CC[C@H](C)[C@H](NC(=O)[C@H](C)NC(=O)[C@H](CC(=O)O)NC(=O)[C@H](C)NC(=O)[C@@H](N)Cc1ccc(O)cc1)C(=O)N[C@@H](Cc1ccccc1)C(=O)N[C@H](C(=O)N[C@@H](CC(N)=O)C(=O)N[C@@H](CO)C(=O)N[C@@H](Cc1ccc(O)cc1)C(=O)N[C@@H](CCCNC(=N)N)C(=O)N[C@@H](CCCCN)C(=O)N[C@H](C(=O)N[C@@H](CC(C)C)C(=O)NCC(=O)N[C@@H](CCC(N)=O)C(=O)N[C@@H](CC(C)C)C(=O)N[C@@H](CO)C(=O)N[C@@H](C)C(=O)N[C@@H](CCCNC(=N)N)C(=O)N[C@@H](CCCCN)C(=O)N[C@@H](CC(C)C)C(=O)N[C@@H](CC(C)C)C(=O)N[C@@H](CCC(N)=O)C(=O)N[C@@H](CC(=O)O)C(=O)N[C@H](C(=O)N[C@@H](CCSC)C(=O)N[C@@H](CO)C(=O)N[C@@H](CCCNC(=N)N)C(=O)N[C@@H](CCC(N)=O)C(=O)N[C@@H](CCC(N)=O)C(=O)NCC(=O)N[C@@H](CCC(=O)O)C(=O)N[C@@H](CO)C(=O)N[C@@H](CC(N)=O)C(=O)N[C@@H](CCC(N)=O)C(=O)N[C@@H](CCC(=O)O)C(=O)N[C@@H](CCCNC(=N)N)C(=O)NCC(=O)N[C@@H](C)C(=O)N[C@@H](CCCNC(=N)N)C(=O)N[C@@H](C)C(=O)N[C@@H](CCCNC(=N)N)C(=O)N[C@@H](CC(C)C)C(N)=O)[C@@H](C)CC)C(C)C)[C@@H](C)O [hGRF],> 1000,–,–,> 1000,–
DLTFHLLREMLEMAKAEQEAEQAALNRLLLEEA-NH2 (C-terminus assumed) [α-helical oCRF(9-41)],> 1000,–,–,–,–
ISLDLTFHLLREVLEMARAEQLAQQAHS [r/hCRF(6-33)],> 1000,–,–,> 1000,–
NDDPPISIDLTFHLLRNMIEMARIENEREQAGLNRKYLDEV-NH2 (C-terminus assumed) [Urotensin I],2,–,more potent than either oCRF or r/hCRF,–,dose-dependent increase in cAMP
d-Phe r/hCRF(12-41): CRF receptor antagonist peptide,> 1000,–,–,> 1000,–
oCRF,80,–,–,–,dose-dependent increase in cAMP
